Source: PubChem BioAssay AID1918943 (Molecular Pharmacology Branch, DTP, NCI, 2023)
Several values for one entry are separate records, joined by “and”; a condition that tells them apart may be missing. Equal entries are not always repeated.

System: 855422-203-R-J1-PDC complex spheroid viability
Assay: Anticancer human tumor 855422-203-R-J1-PDC patient-derived bladder carcinoma cell line growth inhibition
Settings: for viability, T/C: stronger effect = lower value
Description: Multicellular complex tumor spheroid response to LSD1 Inhibitor Iadademstat in combination with a variety of drugs and investigational agents in selected tumor cell lines
The current study was undertaken to assess response to LSD1 inhibitors in combination with standard-of-care drugs and investigational agents in solid tumor complex spheroid models as well as in the K-562 leukemia. Complex spheroids include a stromal component modeled by human endothelial cells (HUVEC) and fibroblasts modeled by human mesenchymal stem cells (MSCs). The concentration ranges selected for each drug and investigational agent were based upon clinically achievable concentrations if the clinical Cmax of the agent was known.
Compounds. The drugs and investigational agents used in this study are listed on Table 1. All of the agents used, including staurosporine (NSC755774) and gemcitabine (NSC613327), were obtained from the Developmental Therapeutics Program, NCI. FDA-approved anticancer drugs are available from the NCI at http://dtp.nci.nih.gov/branches/dscb/oncology_drugset_explanation.html. Drugs and investigational agents were >95% pure by proton nuclear magnetic resonance (NMR) and liquid chromatography/mass spectrometry (LC/MS). Stock solutions were prepared at 400x in DMSO, stored at -70 degrees C, and diluted in fresh medium prior to their use. The final concentration of DMSO in cell culture wells never exceeded 0.25% (v/v). The FDA-approved anticancer drug set is available from the Developmental Therapeutics Program at https://dtp.cancer.gov/organization/dscb/obtaining/available_plates.htm. All drugs and investigational agents were tested over a range starting from a high concentration at or near the clinical Cmax and decreasing in half-log increments. If the clinical Cmax for an agent had not been determined, the highest concentration tested was 10 microM.
Cell Lines. The patient-derived cancer cell (PDC) lines: 292921-168-R-J2-PDC, K24384-001-R-PDC, and 521955-158-R2-J5-PDC pancreatic carcinomas, 556581-035-R-J1 ovarian carcinoma, 324938-238-R-J1-PDC, 855422-203-R-J1-PDC and 883617-216-R-J1-PDC urothelial bladder carcinomas, 743489-274-T-PDC renal cell carcinoma, 138582-R-J1 Merkel cell tumor, K60290-347-R-J1 and K57222-313-R-J1-PDC glioblastomas, 653999-131-R-J2-PDC, LG0703-F948-PDC, and 349418-098-R-PDC non-small cell lung carcinomas, 885512-296-R-J2-PDC, 171881-019-R-J1-PDC breast carcinomas and 186277-243-T-J2-PDC and 233499-124-R-J2-PDC colon carcinomas were obtained from the NCI Patient-Derived Models Repository (PDMR, https://pdmr.cancer.gov). The established cell lines NCI/ADR-RES (RRID:CVCL_14520 and OVCAR-5 (RRID:CVCL_1628) ovarian carcinomas, 786-O (RRID:CVCL_1051) and A498 (RRID:CVCL_A498) renal cell carcinoma, NCI-H211 (ATCC, cat. CRL-5824; RRID:CVCL_1529), NCI-H196 (ATCC, cat. CRL-5823, RRID:CVCL_1509), SW 1271 (ATCC, cat. CRL-2177, RRID:CVCL_1716) and NCI-H1876 (ATCC, cat. CRL-5902, RRID:CVCL_1503) small cell lung carcinomas, MDA-MB-231 (RRID:CVCL_0062) and MDA-MB-468 (RRID:CVCL_0419)breast carcinomas (10-12). Pooled donor human umbilical vein endothelial cells (HUVEC, Lonza, cat. CC-2519) and human mesenchymal stem cells (hMSC, Lonza, cat. PT-2501) were purchased from Lonza (Walkersville, MD).
Cell Culture. All cells were maintained in an incubator at 37 degrees C and 5% CO2 with 95% humidity. The PDC lines were cultured according to standard operating procedures established by the NCI PDMR (https://pdmr.cancer.gov). Briefly all PDCs were thawed and cultured in Matrigel-coated flasks prepared with a working solution of 1X Ham's F-12 nutrient mix, without supplementation (Invitrogen, Waltham, MA, cat. 11765054), 100 U/mL penicillin-streptomycin (Invitrogen, cat. 15140122), and 2.5% Matrigel (Corning Inc., Corning, NY, cat. 354248) for the first three passages. […]

[1] = curve of first compound, second compound 0.1 µM
[2] = curve of first compound, second compound 0.316 µM
[3] = curve of first compound, second compound 1 µM
[4] = curve of first compound, second compound 3.16 µM
[5] = curve of first compound, second compound 10 µM
[6] = second compound 0.1 µM, first compound 0.0316 µM
[7] = second compound 0.1 µM, first compound 0.1 µM
[8] = second compound 0.1 µM, first compound 0.316 µM
[9] = second compound 0.1 µM, first compound 1 µM
[10] = second compound 0.316 µM, first compound 0.0316 µM
[11] = second compound 0.316 µM, first compound 0.1 µM
[12] = second compound 0.316 µM, first compound 0.316 µM
[13] = second compound 0.316 µM, first compound 1 µM
[14] = second compound 1 µM, first compound 0.0316 µM
[15] = second compound 1 µM, first compound 0.1 µM
[16] = second compound 1 µM, first compound 0.316 µM
[17] = second compound 1 µM, first compound 1 µM
[18] = second compound 3.16 µM, first compound 0.0316 µM
[19] = second compound 3.16 µM, first compound 0.1 µM
[20] = second compound 3.16 µM, first compound 0.316 µM
[21] = second compound 3.16 µM, first compound 1 µM
[22] = second compound 10 µM, first compound 0.0316 µM
[23] = second compound 10 µM, first compound 0.1 µM
[24] = second compound 10 µM, first compound 0.316 µM
[25] = second compound 10 µM, first compound 1 µM
[26] = second compound 0.1 µM, first compound 0.00316 µM
[27] = second compound 0.1 µM, first compound 0.01 µM
[28] = second compound 0.316 µM, first compound 0.00316 µM
[29] = second compound 0.316 µM, first compound 0.01 µM
[30] = second compound 1 µM, first compound 0.00316 µM
[31] = second compound 1 µM, first compound 0.01 µM
[32] = second compound 3.16 µM, first compound 0.00316 µM
[33] = second compound 3.16 µM, first compound 0.01 µM
[34] = second compound 10 µM, first compound 0.00316 µM
[35] = second compound 10 µM, first compound 0.01 µM
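Also: drug exposure lasted 7 days starting on day 3 after seeding.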
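For viability, T/C in this document: luminescence viability as percent of DMSO vehicle wells = 100%.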

## CC1COCCN1c1cc(C2(S(C)(=N)=O)CC2)nc(-c2ccnc3[nH]ccc23)n1 (centres undefined) + NC1CCC(NC2CC2c2ccccc2)CC1
[1]
  IC50: 5470 nM
[2]
  IC50: 6000 nM
[3]
  IC50: 3140 nM
[4]
  IC50: 2790 nM
[5]
  IC50: 2440 nM
[6]
  viability, T/C: 98.1%
[7]
  viability, T/C: 97.4%
[8]
  viability, T/C: 104%
[9]
  viability, T/C: 93.1%
Second compound 0.1 µM, first compound 3.16 µM
  viability, T/C: 57.6%
Second compound 0.1 µM, first compound 10 µM
  viability, T/C: 41.7%
[10]
  viability, T/C: 97.4%
[11]
  viability, T/C: 101%
[12]
  viability, T/C: 102%
[13]
  viability, T/C: 92.7%
Second compound 0.316 µM, first compound 3.16 µM
  viability, T/C: 60.6%
Second compound 0.316 µM, first compound 10 µM
  viability, T/C: 41.6%
[14]
  viability, T/C: 91.1%
[15]
  viability, T/C: 93.1%
[16]
  viability, T/C: 90.7%
[17]
  viability, T/C: 87.7%
Second compound 1 µM, first compound 3.16 µM
  viability, T/C: 49.8%
Second compound 1 µM, first compound 10 µM
  viability, T/C: 45.7%
[18]
  viability, T/C: 86.2%
[19]
  viability, T/C: 87.9%
[20]
  viability, T/C: 93.1%
[21]
  viability, T/C: 83.3%
Second compound 3.16 µM, first compound 3.16 µM
  viability, T/C: 46%
Second compound 3.16 µM, first compound 10 µM
  viability, T/C: 43.4%
[22]
  viability, T/C: 86%
[23]
  viability, T/C: 85.5%
[24]
  viability, T/C: 89.8%
[25]
  viability, T/C: 77.8%
Second compound 10 µM, first compound 3.16 µM
  viability, T/C: 42%
Second compound 10 µM, first compound 10 µM
  viability, T/C: 39.2%

## Nc1ncn(C2CC(O)C(CO)S2)c(=O)n1 (centres undefined)
Compound 0.000949 µM
  viability, T/C: 106% and 93.8%
Compound 0.003 µM
  viability, T/C: 91.9% and 98.4%
Compound 0.00949 µM
  viability, T/C: 88.5% and 95.2%
Compound 0.03 µM
  viability, T/C: 84.7% and 98%
Compound 0.0949 µM
  viability, T/C: 82.8% and 102%
Compound 0.3 µM
  viability, T/C: 79.9% and 83.6%
Curve of compound
  IC50: > 300 nM

## CC[C@@]1(O)C(=O)OCc2c1cc1n(c2=O)Cc2cc3c(CN(C)C)c(O)ccc3nc2-1 + NC1CCC(NC2CC2c2ccccc2)CC1
[1]
  IC50: 7.48 nM
[2]
  IC50: 6.91 nM
[3]
  IC50: 7.51 nM
[4]
  IC50: 6.75 nM
[5]
  IC50: 6.22 nM
Second compound 0.1 µM, first compound 0.000316 µM
  viability, T/C: 89.9%
Second compound 0.1 µM, first compound 0.001 µM
  viability, T/C: 93.6%
[26]
  viability, T/C: 82.5%
[27]
  viability, T/C: 38.8%
[6]
  viability, T/C: 27.5%
[7]
  viability, T/C: 22.9%
Second compound 0.316 µM, first compound 0.000316 µM
  viability, T/C: 90.9%
Second compound 0.316 µM, first compound 0.001 µM
  viability, T/C: 83.9%
[28]
  viability, T/C: 77.7%
[29]
  viability, T/C: 36.8%
[10]
  viability, T/C: 24.9%
[11]
  viability, T/C: 21.2%
Second compound 1 µM, first compound 0.000316 µM
  viability, T/C: 89.1%
Second compound 1 µM, first compound 0.001 µM
  viability, T/C: 80%
[30]
  viability, T/C: 78.5%
[31]
  viability, T/C: 39.9%
[14]
  viability, T/C: 32.6%
[15]
  viability, T/C: 21.4%
Second compound 3.16 µM, first compound 0.000316 µM
  viability, T/C: 77.4%
Second compound 3.16 µM, first compound 0.001 µM
  viability, T/C: 83.5%
[32]
  viability, T/C: 74.5%
[33]
  viability, T/C: 37.1%
[18]
  viability, T/C: 25.5%
[19]
  viability, T/C: 21.1%
Second compound 10 µM, first compound 0.000316 µM
  viability, T/C: 79.3%
Second compound 10 µM, first compound 0.001 µM
  viability, T/C: 79.2%
[34]
  viability, T/C: 66%
[35]
  viability, T/C: 37.2%
[22]
  viability, T/C: 26.9%
[23]
  viability, T/C: 15.9%

## COc1ccc([C@@H](O)c2cc(-c3ncnc4cc(N5CCOCC5)ccc34)c(F)cc2Cl)nn1
Compound 0.0316 µM
  viability, T/C: 95% and 94.1%
Compound 0.1 µM
  viability, T/C: 94.7% and 94.4%
Compound 0.316 µM
  viability, T/C: 79.5% and 92.2%
Compound 1 µM
  viability, T/C: 74.3% and 85.5%
Compound 3.16 µM
  viability, T/C: 53.7% and 69.3%
Compound 10 µM
  viability, T/C: 38.6% and 39.6%
Curve of compound
  IC50: 4480 nM and 6680 nM

## CC1COCCN1c1cc(-c2ccnn2C)c2ccnc(-c3ccn[nH]3)c2n1 (centres undefined) + NC1CC1c1ccc(-c2cccc(O)c2)cc1
[1]
  IC50: 131 nM
[2]
  IC50: 102 nM
[3]
  IC50: 94.7 nM
[4]
  IC50: 106 nM
[5]
  IC50: 77.5 nM
[26]
  viability, T/C: 111%
[27]
  viability, T/C: 101%
[6]
  viability, T/C: 100%
[7]
  viability, T/C: 54.5%
[8]
  viability, T/C: 34.8%
[9]
  viability, T/C: 35.5%
[28]
  viability, T/C: 102%
[29]
  viability, T/C: 93%
[10]
  viability, T/C: 99.7%
[11]
  viability, T/C: 50.2%
[12]
  viability, T/C: 35%
[13]
  viability, T/C: 31%
[30]
  viability, T/C: 94.7%
[31]
  viability, T/C: 97.8%
[14]
  viability, T/C: 89%
[15]
  viability, T/C: 48.3%
[16]
  viability, T/C: 30.8%
[17]
  viability, T/C: 33.9%
[32]
  viability, T/C: 91.8%
[33]
  viability, T/C: 99.5%
[18]
  viability, T/C: 94.7%
[19]
  viability, T/C: 51%
[20]
  viability, T/C: 30.1%
[21]
  viability, T/C: 29.5%
[34]
  viability, T/C: 90.7%
[35]
  viability, T/C: 90.5%
[22]
  viability, T/C: 80.9%
[23]
  viability, T/C: 41.2%
[24]
  viability, T/C: 27.1%
[25]
  viability, T/C: 26.1%
